Values quoted from earlier work as cited in patent US10493116B2, “Longevity gene expression enhancer” (Shiseido Company, Ltd., priority 2014, dated 2019).
One block for each molecule: values may come before it.

Assays:
[1] = molecular target: T1, sirtuin-1 (Homo sapiens, UniProt Q96EB6)
T1 sequence (Q96EB6 1-747): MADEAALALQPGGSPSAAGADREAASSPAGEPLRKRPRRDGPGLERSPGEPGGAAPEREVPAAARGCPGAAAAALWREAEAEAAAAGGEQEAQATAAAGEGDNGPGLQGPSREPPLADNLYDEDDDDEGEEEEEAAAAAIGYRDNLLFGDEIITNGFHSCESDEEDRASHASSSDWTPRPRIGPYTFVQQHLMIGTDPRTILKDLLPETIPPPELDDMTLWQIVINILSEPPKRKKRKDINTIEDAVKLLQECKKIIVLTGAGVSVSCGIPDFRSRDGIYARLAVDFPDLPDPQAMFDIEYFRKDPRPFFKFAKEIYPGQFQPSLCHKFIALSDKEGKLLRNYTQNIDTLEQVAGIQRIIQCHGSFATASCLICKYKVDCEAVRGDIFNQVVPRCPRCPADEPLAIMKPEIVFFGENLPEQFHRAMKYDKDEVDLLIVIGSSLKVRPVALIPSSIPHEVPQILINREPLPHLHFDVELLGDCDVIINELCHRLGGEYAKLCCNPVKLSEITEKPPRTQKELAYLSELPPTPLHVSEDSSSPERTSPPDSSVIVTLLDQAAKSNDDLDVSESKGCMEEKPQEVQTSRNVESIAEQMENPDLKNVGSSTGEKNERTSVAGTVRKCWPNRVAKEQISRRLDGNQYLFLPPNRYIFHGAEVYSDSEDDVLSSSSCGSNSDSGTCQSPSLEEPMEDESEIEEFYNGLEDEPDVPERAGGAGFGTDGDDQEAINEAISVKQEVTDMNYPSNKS

[2] = test system: sirtuin-1; conditions: quercetin produced from rutin in the body; J. Pharmacol. Sci., 2008, 108, 364-71

sirtuin-1 activating effect ([1]; PLoS One, 2014, 9(2), e89166): no sirtuin-1 activating effect
SMILES: O=C(/C=C/c1ccc(O)c(O)c1)O[C@@H]1C[C@](O)(C(=O)O)C[C@@H](O)[C@H]1O [chlorogenic acid]

SMILES: COc1ccc([C@@H]2CC(=O)c3c(O)cc(O[C@@H]4O[C@H](CO[C@@H]5O[C@@H](C)[C@H](O)[C@@H](O)[C@H]5O)[C@@H](O)[C@H](O)[C@H]4O)cc3O2)cc1O [hesperidin]
effect of activating sirtuin-1 ([1]; at 5 μM, Biosci. Biotechnol. Biochem., 2012, 76(4), 640-645): effect of activating sirtuin-1

SMILES: O=c1c(O)c(-c2ccc(O)c(O)c2)oc2cc(O)cc(O)c12 [quercetin]
sirtuin-1 expression inhibiting effect [2]: sirtuin-1 expression inhibiting effect
